These results are taken from patent US20080064668A1, “1,3-Diacylated, 26,27-Alkyl/Haloakyl Vitamin D3 Compounds and Methods of Use Thereof” (BioXell S.p.A., priority 2003, published 2008).

For series [1], the system named is RT4. Nature of the series: Proliferation assay using bladder cancer cell lines, RT4. Format: cell-based, human. The note with it: Homo sapiens, 72 h culture, CyQuant proliferation assay. As for the experimental part: (§1) Bladder cancer cell lines (T24, RT112, HT1376 and RT4 are human bladder cancer cell lines; NHEK are normal human keratinocytes) were obtained from the European Collection of Cell Cultures (Salisbury, UK). Cells were plated at 3×10^3 per well, in flat bottomed 96-well plates in 100 μl of DMEM medium containing: 5% Fetal Clone I, 50 μg/l gentamicin, 1 mM sodium pyruvate and 1% non-essential amino acids. After culturing for 24 h at 37° C. in 5% CO2, to allow cells to adhere to the plates, VDR ligands (compounds (2), (4), (5) and other vitamin D3 analogs as shown in Table 4) were added at concentrations ranging from 100 μM to 0.3 μM in 100 μl of above-mentioned complete medium. After a further 72 h of culture, cell proliferation was measured using a fluorescence-based proliferation assay kit. (CyQuant Cell Proliferation Assay Kit, Molecular Probes, Eugene, Oreg., USA). The IC50 was calculated from the regression curve of the titration data.

A short description of series [2]: Determination of Maximum Tolerated Dose (MTD). The note with it: female, C57BL/6, mouse, in vivo, po. As for the experimental part:
The maximum tolerated dose of the vitamin D3 compounds of the invention were determined in eight week-old female C57BL/6 mice (3 mice/group) dosed orally (0.1 ml/mouse) with various concentrations of Vitamin D3 analogs daily for four days. Analogs were formulated in miglyol for a final concentration of 0.01, 0.03, 0.1 0.3, 1, 3, 10, 30, 100 and 300 μg/kg when given at 0.1 ml/mouse p.o. daily. Blood for serum calcium assay was drawn by tail bleed on day five, the final day of the study.

The test system of series [3] is NHEK. Nature of the series: Proliferation assay, NHEK normal human keratinocytes. Format: cell-based. The note with it: Homo sapiens, NHEK; 72 h culture, CyQuant proliferation assay. As for the experimental part: as §1
Series [4] has as its system Human BPH cells. Nature of the series: BPH cell proliferation assay (testosterone-induced). The class given is cell-based. The note with it: 48 h. As for the experimental part: Human BPH cells, prepared, maintained and used as previously described in Crescioli C, et al. Journal of Clinical and Endocrinology Metabolism (2000) 85 p 2576-2583, were obtained from prostate tissues derived from 5 patients, who underwent suprapubic adenomectomy for BPH, after informed consent and approval by the Local Ethical Committee.
For all cell proliferation assays, 4×10^4 BPH cells were seeded onto 12-well plates in their growth medium, starved in red- and serum-free medium containing 0.1% BSA for 24 h, and then treated with specific stimuli for 48 h. Cells in phenol red- and serum-free medium containing 0.1% BSA were used as controls. Thereafter, cells were trypsinized, and each experimental point was derived from hemocytometer counting, averaging at least six different fields for each well, as previously reported (see Crescioli C, et al. Journal of Clinical and Endocrinology Metabolism (2000) 85 p 2576-2583).
Growth assays were also carried out using a fixed concentration of androgens (10 nM) with or without vitamin-D analogs (1 nM, 10 nM) or the anti-androgens finasteride (F, 1 nM) and cyproterone acetate (Cyp, 100 nM. Growth assays were also performed using a fixed concentration of T (10 nM) or GFs (10 ng/ml) with or without the vitamin-D analogs. (10 nM).
In the same experiment, each experimental point was repeated in triplicate or quadruplicate and experiments were performed 3 times. Results are expressed as % variation (mean±SEM) over the maximal T or GF-induced stimulation.

Series [5] relates to ECV. Nature of the series: Proliferation assay using bladder cancer cell lines, ECV. The class given is cell-based, human. The note with it: Homo sapiens; 72 h culture, CyQuant proliferation assay.
The nature of series [6]: MTD in CD1 mouse (highest non-hypercalcemic dose). The note with it: in vivo.
Series [7] has as its system HT 1376. Nature of the series: Proliferation assay using bladder cancer cell lines, HT1376. Format: cell-based, human. The note with it: Homo sapiens, HT-1376; 72 h culture, CyQuant proliferation assay. As for the experimental part: as §1
Series [8] deals with RT112. Nature of the series: Proliferation assay using bladder cancer cell lines, RT112. Format: cell-based, human. The note with it: Homo sapiens, 72 h culture, CyQuant proliferation assay. As for the experimental part:
as §1

For series [9], the system named is IFN-γ production. Nature of the series: IFN-γ production in the mixed leukocyte response (MLR). The class given is cell-based. The note with it: 120 h; allogeneic PBMC from 2 donors, 5 days, ELISA; read-out: INF-γ IC50. As for the experimental part: Immature dendritic cells (DC) were prepared as described in Romani, N. et al. (Romani, N. et al. (1996) J. Immunol. Meth. 196:137). IFN-γ production by allogeneic T cell activation in the mixed leukocyte response (MLR) was determined as described in Penna, G., et al., J Immunol., 164: 2405-2411 (2000).
Briefly, peripheral blood mononuclear cells (PBMC) were separated from buffy coats by Ficoll gradient and the same number (3×10^5) of allogeneic PBMC from 2 different donors were co-cultured in 96-well flat-bottom plates. The vitamin D3 compounds were added to each of the cultures.

Series [10] concerns human stromal bladder cells. Nature of the series: Inhibition of basal human bladder cell growth. The class given is cell-based. From the text: The Inventors confirmed the presence of vitamin D receptors (VDRs), as previously reported in the literature, on these cells (see below in FIG. 3).
(§2) The maximum tolerated dose (MTD) in rats is also listed for each compound (Table 7).

Series [11] in a line: Maximum tolerated dose (MTD) in rats (Table 7). The note with it: rat, in vivo.
Source text: as §2

Turning to `C=C1/C(=C\C=C2/CCC[C@]3(C)C(C(C)CC#CC(O)(C(F)(F)F)C(F)(F)F)=CCC23)CC(OC(C)=O)C[C@@H]1OC(C)=O` (stereo partly shown) [(14), 1,3-Di-O-acetyl-1,25-dihydroxy-16-ene-23-yne-26,27-hexafluoro-cholecalciferol], the IC50 in [1] (RT-4, 72 h) was 19 µM; in series [3], 0.98 µM; in [4] it was 501 µM; in series [5], greater than 100 µM; in series [7], greater than 100 µM; in series [8] (RT-112, 72 h), 26 µM. The IC50 in [9] was found to be 27.3 pM. For the same molecule, the MTD at 4 days in series [2] came to 0.01 mg/kg. In addition, the MTD in [6] was 0.01 mg/kg.

`C=C1/C(=C\C=C2/CCC[C@]3(C)[C@@H]([C@H](C)CCCC(C)(C)O)CC[C@@H]23)C[C@@H](O)C[C@@H]1O` [Calcitriol, 1,25-dihydroxycholecalciferol, reference compound]: the “inhibiting the basal growth of bladder cells” value in series [10] (human stromal bladder cells in culture) is given as “effective”. In addition, the IC50 in series [1] (RT-4) is 45 µM; in [3], 4.9 µM; in series [4], 0.0851 µM; in [7], 50 µM; in series [8] (RT-112) it was 19 µM; in series [9] it was 22 pM. The molecule also registered an MTD at 4 days in series [2] of 0.001 mg/kg. Further, the MTD in series [6] is 0.001 mg/kg.

Turning to `C=C1/C(=C\C=C2/CCC[C@@]3(C)C2CCC3C(C)CC#CC(C)(C)O)CC(OC(C)=O)C[C@@H]1OC(C)=O` (stereo partly shown) [(41), 1,3-Di-O-acetyl-1,25-dihydroxy-23-yne-cholecalciferol], the 50% inhibitory concentration (IC50) in [1] (RT-4, 72 h) is 85 µM; in series [3], 4.2 µM; in series [4] it was 0.000724 µM; in [5] it was 40 µM; in [7], greater than 100 µM; in series [8] (RT-112, 72 h) it was 8 µM. The IC50 in series [9] amounted to 80 pM. In series [2], this molecule displayed an MTD at 4 days of 0.001 mg/kg. The MTD in series [6] is 0.001 mg/kg.

In the case of `C=C1/C(=C\C=C2/CCC[C@]3(C)C(C(C)CCCC(C)(C)O)=CCC23)CC(OC(C)=O)C[C@@H]1OC(C)=O` (stereo partly shown) [(11), 1,3-Di-O-acetyl-1,25-dihydroxy-16-ene-cholecalciferol], the IC50 in [1] (RT-4, 72 h) was 75 µM; in series [3], 5 µM; in series [4], 0.000759 µM; in [5] it was 59.9 µM; in [7], greater than 100 µM; in [8] (RT-112, 72 h), 18 µM. In addition, the MTD in series [6] was 0.001 mg/kg.

Regarding `C=C1/C(=C\C=C2/CCC[C@]3(C)C(C(C)CC#CC(C)(C)O)=CCC23)CC(OC(C)=O)C[C@@H]1OC(C)=O` (stereo partly shown) [(7), 1,3-Di-O-acetyl-1,25-dihydroxy-16-ene-23-yne-cholecalciferol], the IC50 was 80 µM in [1] (RT-4, 72 h); 4.8 µM in [3]; 42.7 µM in [4]; 27.7 µM in series [5]; greater than 100 µM in series [7]; 3 µM in [8] (RT-112, 72 h). The IC50 in series [9] turned out to be 51 pM. The molecule also registered an MTD at 4 days in [2] of 0.01 mg/kg. Also, the MTD in [6] was 0.01 mg/kg.

Turning to `C=C1/C(=C\C=C2/CCC[C@@]3(C)C2CCC3C2(CCCC(C)(C)O)CC2)C[C@@H](OC(C)=O)C[C@@H]1OC(C)=O` (stereo partly shown) [(35), 1,3-Di-O-acetyl-1,25-dihydroxy-20-cyclopropyl-cholecalciferol], the IC50 in series [1] (RT-4, 72 h) is 10 µM; in series [3], 4.7 µM; in [4] it was 1260 µM; in [5], 52.1 µM; in series [7], 67 µM; in series [8] (RT-112, 72 h), 9 µM. In addition, the MTD at 4 days in series [2] worked out at 0.03 mg/kg. The MTD in series [6] was 0.03 mg/kg.

Turning to `C=C1/C(=C\C=C2/CCC[C@@]3(C)C2CCC3C2(CC#CC(C)(C)O)CC2)CC(OC(C)=O)C[C@@H]1OC(C)=O` (stereo partly shown) [(29), 1,3-Di-O-acetyl-1,25-dihydroxy-20-cyclopropyl-23-yne-cholecalciferol], the MTD in series [11] and in series [6] was 0.03 mg/kg each time. In addition, the 50% inhibitory concentration (IC50) is less than 10000 µM in series [10] (Homo sapiens); 13 µM in series [1] (RT-4, 72 h); 5.9 µM in series [3]; 0.00316 µM in series [4]; 49.6 µM in series [5]; 80 µM in series [7]. The IC50 worked out at 8 µM in [8] (RT-112, 72 h) and 7.8 pM in series [9]. Also, the MTD at 4 days in [2] came to 0.03 mg/kg.

Consider `C=C1/C(=C\C=C2/CCC[C@]3(C)C(C(C)C/C=C/C(C)(C)O)=CCC23)CC(OC(C)=O)C[C@@H]1OC(C)=O` (stereo partly shown) [(9), 1,3-Di-O-acetyl-1,25-dihydroxy-16,23E-diene-cholecalciferol], for which the concentration for half-maximal inhibition (IC50) is 82 µM in [1] (RT-4, 72 h); 5.1 µM in [3]; 0.00912 µM in series [4]; 58.7 µM in series [5]; greater than 100 µM in series [7]; 14 µM in series [8] (RT-112, 72 h). The MTD in series [6] was 0.003 mg/kg.

Regarding `CC(=O)OC1C/C(=C/C=C2\CCC[C@@]3(C)C2CCC3C2(CC#CC(OC(C)=O)(C(F)(F)F)C(F)(F)F)CC2)C[C@@H](OC(C)=O)C1` (stereo partly shown) [(26), 1,3,25-Tri-O-acetyl-1,25-dihydroxy-20-cyclopropyl-23-yne-26,27-hexafluoro-19-nor-cholecalciferol], the half-maximal inhibitory concentration (IC50) was 5 µM in series [1] (RT-4, 72 h); 32.8 µM in series [3]; greater than 100000 µM in [4]; 63.5 µM in series [5]; greater than 100 µM in series [7]; 15 µM in [8] (RT-112, 72 h). Also, the concentration for half-maximal inhibition (IC50) in [9] was 922 pM. This molecule also came in with an MTD at 4 days in [2] of 0.01 mg/kg. The MTD in [6] is 0.01 mg/kg.

For the molecule `CC(=O)OC1C/C(=C/C=C2\CCC[C@@]3(C)C2CCC3C2(CC#CC(O)(C(F)(F)F)C(F)(F)F)CC2)C[C@@H](OC(C)=O)C1` (stereo partly shown) [(27), 1,3-Di-O-acetyl-1,25-dihydroxy-20-cyclopropyl-23-yne-26,27-hexafluoro-19-nor-cholecalciferol], in series [2], the MTD at 4 days came out at 0.01 mg/kg. The IC50 in series [3] is 2.6 µM; in series [4] it was 0.000794 µM; in [5] it was 25.5 µM; in series [7], 43 µM; in series [9], 78 pM. Further, the MTD in [6] was 0.01 mg/kg.
